Measurements taken from publication PMC4279228 (Molecular Biology of the Cell, 2015).

Target: LFA-1 (CD11a/CD18, αLβ2 integrin) (Homo sapiens, UniProt P05107+P20701)
Test: Kd of unlabelled compound with XVA-FITC probe, flow cytometry on cells
Type: cell-based

LFA-1 (CD11a/CD18, αLβ2 integrin), sequence (P20701 26-1170): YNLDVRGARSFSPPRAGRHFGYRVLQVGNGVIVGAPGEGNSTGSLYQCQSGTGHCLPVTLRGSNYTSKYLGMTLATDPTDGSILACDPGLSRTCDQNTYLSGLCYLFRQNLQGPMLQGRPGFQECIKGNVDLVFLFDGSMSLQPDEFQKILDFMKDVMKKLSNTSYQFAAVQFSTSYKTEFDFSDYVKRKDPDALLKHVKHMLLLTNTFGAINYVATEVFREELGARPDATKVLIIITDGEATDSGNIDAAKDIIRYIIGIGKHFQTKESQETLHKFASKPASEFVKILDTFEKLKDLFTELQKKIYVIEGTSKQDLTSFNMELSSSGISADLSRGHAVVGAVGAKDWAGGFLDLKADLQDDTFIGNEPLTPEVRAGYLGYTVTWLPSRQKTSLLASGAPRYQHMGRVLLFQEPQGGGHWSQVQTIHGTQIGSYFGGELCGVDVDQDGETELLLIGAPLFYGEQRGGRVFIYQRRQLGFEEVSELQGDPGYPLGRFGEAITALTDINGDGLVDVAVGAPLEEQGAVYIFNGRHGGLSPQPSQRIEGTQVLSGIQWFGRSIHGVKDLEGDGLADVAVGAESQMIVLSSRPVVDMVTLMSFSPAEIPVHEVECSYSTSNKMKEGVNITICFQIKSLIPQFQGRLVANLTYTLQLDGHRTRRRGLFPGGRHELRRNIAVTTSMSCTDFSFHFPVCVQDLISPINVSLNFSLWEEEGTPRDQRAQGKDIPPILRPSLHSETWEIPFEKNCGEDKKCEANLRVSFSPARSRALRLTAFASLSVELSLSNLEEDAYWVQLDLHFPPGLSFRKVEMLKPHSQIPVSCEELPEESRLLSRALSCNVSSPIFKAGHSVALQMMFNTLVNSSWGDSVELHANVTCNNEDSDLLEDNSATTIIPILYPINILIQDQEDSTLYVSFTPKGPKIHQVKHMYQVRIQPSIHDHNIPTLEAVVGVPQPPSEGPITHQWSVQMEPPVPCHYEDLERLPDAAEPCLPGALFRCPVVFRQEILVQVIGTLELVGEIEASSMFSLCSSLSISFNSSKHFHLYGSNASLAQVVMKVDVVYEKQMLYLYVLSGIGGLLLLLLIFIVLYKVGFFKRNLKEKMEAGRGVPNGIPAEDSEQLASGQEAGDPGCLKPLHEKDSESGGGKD
LFA-1 (CD11a/CD18, αLβ2 integrin), sequence (P05107 23-769): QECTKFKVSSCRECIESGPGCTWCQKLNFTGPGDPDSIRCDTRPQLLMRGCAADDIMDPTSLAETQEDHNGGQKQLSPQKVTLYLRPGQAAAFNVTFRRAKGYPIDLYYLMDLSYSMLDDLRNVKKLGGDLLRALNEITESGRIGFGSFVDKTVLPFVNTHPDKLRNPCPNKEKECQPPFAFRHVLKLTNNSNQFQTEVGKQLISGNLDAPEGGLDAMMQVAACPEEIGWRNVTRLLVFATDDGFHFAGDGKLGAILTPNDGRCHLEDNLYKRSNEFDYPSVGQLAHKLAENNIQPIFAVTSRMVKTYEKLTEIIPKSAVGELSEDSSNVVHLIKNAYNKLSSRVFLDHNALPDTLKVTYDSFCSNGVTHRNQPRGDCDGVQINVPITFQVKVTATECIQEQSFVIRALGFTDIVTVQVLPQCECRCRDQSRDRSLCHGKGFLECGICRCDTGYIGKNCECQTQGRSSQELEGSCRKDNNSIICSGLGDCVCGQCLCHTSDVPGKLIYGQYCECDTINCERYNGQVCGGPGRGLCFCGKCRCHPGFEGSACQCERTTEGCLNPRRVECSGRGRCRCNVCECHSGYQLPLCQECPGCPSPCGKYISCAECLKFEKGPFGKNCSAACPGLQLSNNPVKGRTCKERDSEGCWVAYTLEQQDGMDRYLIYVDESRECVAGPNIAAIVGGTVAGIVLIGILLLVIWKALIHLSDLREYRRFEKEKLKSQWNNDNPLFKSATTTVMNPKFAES

- Kd: 80 to 90 nM
Compound: O=C(NCc1cccc(O)c1)c1cc(Cl)c(C(=O)N[C@@H](CNC(=O)c2cc(O)cc(O)c2)C(=O)O)c(Cl)c1 [XVA-143, (S)-2-[4-(3-hydroxybenzylcarbamoyl)-2,6-dichlorobenzoylamino]-3-(3,5-dihydroxybenzoylamino) propionic acid]
